Reference: US10550142B2, “Quercetin-based compound” (AMOREPACIFIC CORPORATION, priority 2016, dated 2020)

Test system: skin
Assay: Cumulative skin irritation test, HRIPT (human repeated insult patch test)
Type: in vivo
Parameters: key to skin reactivity (ICDRG criteria): −: Negative (no reaction); ±: Suspicious or slight erythema, etc.; +: Weak reaction (not accompanied by vesicles), erythema, papules; ++: Severe reaction (accompanied by vesicles), erythema, papules, vesicles; +++: Strong reaction, bullae
Conditions: for Number of subjects showing ±, + or ++ reactivity 1st: 1st patch; for Number of subjects showing ±, + or ++ reactivity 2nd: 2nd patch; for Number of subjects showing ±, + or ++ reactivity 3rd: 3rd patch; for Number of subjects showing ±, + or ++ reactivity 4th: 4th patch; for Number of subjects showing ±, + or ++ reactivity 5th: 5th patch; for Number of subjects showing ±, + or ++ reactivity 6th: 6th patch; for Number of subjects showing ±, + or ++ reactivity 7th: 7th patch; for Number of subjects showing ±, + or ++ reactivity 8th: 8th patch; for Number of subjects showing ±, + or ++ reactivity 9th: 9th patch; for Average reactivity: less than 3 = safe
Description: HRIPT (human repeated insult patch test) was performed to evaluate the cumulative skin irritation of quercetin 3-O-[3-O″-(E)-p-coumaroyl][β-D-glucopyranosyl-(1→3)-O-α-L-rhamnopyranosyl-(1→6)-O-β-D-glucopyranoside] and quercetin 3-O-[3-O″-(E)-p-coumaroyl][α-L-rhamnopyranosyl-(1→6)-O-β-D-glucopyranoside] and determine the range of concentration applicable to the skin. Specifically, 15 healthy adult subjects were randomly selected, and 20 μl of a test composition (composition for the skin including an emulsifier, a stabilizer, purified water, etc. in addition to each of the above compounds) containing 0.5% by weight, 1% by weight or 3% by weight of each of the compounds was dropped into each chamber (IQ chamber, Epitest Ltd, Finland) The patch was applied to the upper right side of the back of the subject, and after 24 hours from the application, it was replaced with a new patch. In this way, a total of 9 patches were applied, 3 times a week for 3 weeks. The skin reaction was checked before and after application of each patch. The skin reaction was checked until after 48 hours from the removal of the final patch, and the average reactivity was calculated. The skin reaction was evaluated according to the criteria of the International Contact Dermatitis Research Group (ICDRG). In the above table, “novel substance 31” denotes quercetin 3-O-[3-O″-(E)-p-coumaroyl][β-D-glucopyranosyl-(1→3)-O-α-L-rhamnopyranosyl-(1→6)-O-β-D-glucopyranoside], and “novel substance 32” denotes quercetin 3-O-[3-O″-(E)-p-coumaroyl][α-L-rhamnopyranosyl-(1→6)-O-β-D-glucopyranoside.

[1] = 0.5% by weight, line 1 of 3 (±)
[2] = 0.5% by weight, line 2 of 3 (+)
[3] = 0.5% by weight, line 3 of 3 (++)

## CC1OC(OCC2OC(Oc3c(-c4ccc(O)c(O)c4)oc4cc(O)cc(O)c4c3=O)C(O)C(OC(=O)/C=C/c3ccc(O)cc3)C2O)C(O)C(O)C1O [Novel substance 32, quercetin 3-O-[3-O″-(E)-p-coumaroyl][α-L-rhamnopyranosyl-(1→6)-O-β-D-glucopyranoside]]
[1]
  Number of subjects showing ±, + or ++ reactivity 1st: 0 number of persons
  Number of subjects showing ±, + or ++ reactivity 2nd: 0 number of persons
  Number of subjects showing ±, + or ++ reactivity 3rd: 0 number of persons
  Number of subjects showing ±, + or ++ reactivity 4th: 0 number of persons
  Number of subjects showing ±, + or ++ reactivity 5th: 0 number of persons
  Number of subjects showing ±, + or ++ reactivity 6th: 0 number of persons
  Number of subjects showing ±, + or ++ reactivity 7th: 0 number of persons
  Number of subjects showing ±, + or ++ reactivity 8th: 0 number of persons
  Number of subjects showing ±, + or ++ reactivity 9th: 0 number of persons
[2]
  Number of subjects showing ±, + or ++ reactivity 1st: 0 number of persons
  Number of subjects showing ±, + or ++ reactivity 2nd: 0 number of persons
  Number of subjects showing ±, + or ++ reactivity 3rd: 0 number of persons
  Number of subjects showing ±, + or ++ reactivity 4th: 0 number of persons
  Number of subjects showing ±, + or ++ reactivity 5th: 0 number of persons
  Number of subjects showing ±, + or ++ reactivity 6th: 0 number of persons
  Number of subjects showing ±, + or ++ reactivity 7th: 0 number of persons
  Number of subjects showing ±, + or ++ reactivity 8th: 0 number of persons
  Number of subjects showing ±, + or ++ reactivity 9th: 0 number of persons
[3]
  Number of subjects showing ±, + or ++ reactivity 1st: 0 number of persons
  Number of subjects showing ±, + or ++ reactivity 2nd: 0 number of persons
  Number of subjects showing ±, + or ++ reactivity 3rd: 0 number of persons
  Number of subjects showing ±, + or ++ reactivity 4th: 0 number of persons
  Number of subjects showing ±, + or ++ reactivity 5th: 0 number of persons
  Number of subjects showing ±, + or ++ reactivity 6th: 0 number of persons
  Number of subjects showing ±, + or ++ reactivity 7th: 0 number of persons
  Number of subjects showing ±, + or ++ reactivity 8th: 0 number of persons
  Number of subjects showing ±, + or ++ reactivity 9th: 0 number of persons
0.5% by weight
  Average reactivity: 0
1% by weight, line 1 of 3 (±)
  Number of subjects showing ±, + or ++ reactivity 1st: 0 number of persons
  Number of subjects showing ±, + or ++ reactivity 2nd: 0 number of persons
  Number of subjects showing ±, + or ++ reactivity 3rd: 0 number of persons
  Number of subjects showing ±, + or ++ reactivity 4th: 0 number of persons
  Number of subjects showing ±, + or ++ reactivity 5th: 0 number of persons
  Number of subjects showing ±, + or ++ reactivity 6th: 0 number of persons
  Number of subjects showing ±, + or ++ reactivity 7th: 0 number of persons
  Number of subjects showing ±, + or ++ reactivity 8th: 0 number of persons
  Number of subjects showing ±, + or ++ reactivity 9th: 0 number of persons
1% by weight, line 2 of 3 (+)
  Number of subjects showing ±, + or ++ reactivity 1st: 0 number of persons
  Number of subjects showing ±, + or ++ reactivity 2nd: 0 number of persons
  Number of subjects showing ±, + or ++ reactivity 3rd: 0 number of persons
  Number of subjects showing ±, + or ++ reactivity 4th: 0 number of persons
  Number of subjects showing ±, + or ++ reactivity 5th: 0 number of persons
  Number of subjects showing ±, + or ++ reactivity 6th: 0 number of persons
  Number of subjects showing ±, + or ++ reactivity 7th: 0 number of persons
  Number of subjects showing ±, + or ++ reactivity 8th: 0 number of persons
  Number of subjects showing ±, + or ++ reactivity 9th: 0 number of persons
1% by weight, line 3 of 3 (++)
  Number of subjects showing ±, + or ++ reactivity 1st: 0 number of persons
  Number of subjects showing ±, + or ++ reactivity 2nd: 0 number of persons
  Number of subjects showing ±, + or ++ reactivity 3rd: 0 number of persons
  Number of subjects showing ±, + or ++ reactivity 4th: 0 number of persons
  Number of subjects showing ±, + or ++ reactivity 5th: 0 number of persons
  Number of subjects showing ±, + or ++ reactivity 6th: 0 number of persons
  Number of subjects showing ±, + or ++ reactivity 7th: 0 number of persons
  Number of subjects showing ±, + or ++ reactivity 8th: 0 number of persons
  Number of subjects showing ±, + or ++ reactivity 9th: 0 number of persons
1% by weight
  Average reactivity: 0
3% by weight, line 1 of 3 (±)
  Number of subjects showing ±, + or ++ reactivity 1st: 0 number of persons
  Number of subjects showing ±, + or ++ reactivity 2nd: 0 number of persons
  Number of subjects showing ±, + or ++ reactivity 3rd: 0 number of persons
  Number of subjects showing ±, + or ++ reactivity 4th: 0 number of persons
  Number of subjects showing ±, + or ++ reactivity 5th: 0 number of persons
  Number of subjects showing ±, + or ++ reactivity 6th: 0 number of persons
  Number of subjects showing ±, + or ++ reactivity 7th: 0 number of persons
  Number of subjects showing ±, + or ++ reactivity 8th: 0 number of persons
  Number of subjects showing ±, + or ++ reactivity 9th: 0 number of persons
3% by weight, line 2 of 3 (+)
  Number of subjects showing ±, + or ++ reactivity 1st: 0 number of persons
  Number of subjects showing ±, + or ++ reactivity 2nd: 0 number of persons
  Number of subjects showing ±, + or ++ reactivity 3rd: 0 number of persons
  Number of subjects showing ±, + or ++ reactivity 4th: 0 number of persons
  Number of subjects showing ±, + or ++ reactivity 5th: 0 number of persons
  Number of subjects showing ±, + or ++ reactivity 6th: 0 number of persons
  Number of subjects showing ±, + or ++ reactivity 7th: 0 number of persons
  Number of subjects showing ±, + or ++ reactivity 8th: 0 number of persons
  Number of subjects showing ±, + or ++ reactivity 9th: 0 number of persons
3% by weight, line 3 of 3 (++)
  Number of subjects showing ±, + or ++ reactivity 1st: 0 number of persons
  Number of subjects showing ±, + or ++ reactivity 2nd: 0 number of persons
  Number of subjects showing ±, + or ++ reactivity 3rd: 0 number of persons
  Number of subjects showing ±, + or ++ reactivity 4th: 0 number of persons
  Number of subjects showing ±, + or ++ reactivity 5th: 0 number of persons
  Number of subjects showing ±, + or ++ reactivity 6th: 0 number of persons
  Number of subjects showing ±, + or ++ reactivity 7th: 0 number of persons
  Number of subjects showing ±, + or ++ reactivity 8th: 0 number of persons
  Number of subjects showing ±, + or ++ reactivity 9th: 0 number of persons
3% by weight
  Average reactivity: 0
Within the content range 0.5, 1, 3% by weight, 9 patches, 15 subjects
  skin reactivity (ICDRG criteria): −
